Results on 5 compounds are retold here after ChEMBL document CHEMBL1146458, “Five new maleic and succinic acid derivatives from the mycelium of Antrodia camphorata and their cytotoxic effects on LLC tumor cell line” (2004).

Converted amounts (≈) assume the structure as drawn.

The assay is described as follows: Cytotoxicity against mouse LLC cells after 48 hrs by SRB assay. The class given is functional. As to conditions: Lewis lung carcinoma, read-out: ED50 (the source's name). On the technique in general: Sulforhodamine B stains cellular protein and so reports cell mass.

As to `COc1cccc2c1C(=O)c1c(O)c3c(c(O)c1C2=O)C[C@@](O)(C(=O)CO)C[C@@H]3O[C@H]1C[C@H](N)[C@H](O)[C@H](C)O1` [DOXORUBICIN], the EC50 was 0.14 µg/mL (≈ 0.258 µM).
On to `CC(C)=CCOc1ccc(C2=C(CC(C)C)C(=O)N(O)C2=O)cc1`, for which the EC50 came out at 7.5 µg/mL (≈ 22.8 µM).
In the case of `CC(C)=CCOc1ccc(C2=C(CC(C)C)C(=O)NC2=O)cc1`, the EC50 came to 3.6 µg/mL (≈ 11.5 µM).
Consider `CC(C)=CCOc1ccc([C@H]2C(=O)N(O)C(=O)[C@@H]2CC(C)C)cc1` (relative stereo), for which the EC50 is greater than 10 µg/mL.
`CC(C)=CCOc1ccc(C2=C(CC(C)C)C(=O)OC2=O)cc1`: the EC50 was greater than 20 µg/mL.
